Laboratory results published in patent US20080207718A1, “Use of Fused Imidazole Derivatives to Mediate Ccr3 Related Conditions” (priority 2005, published 2008).

Biological target: T1, human CCR-3 (Homo sapiens, UniProt P51677)
T1 construct: expressed in transfected cells; host or cells: rat basophil leukaemia (RBL-2H3) cells, membrane preparation
T1 sequence (P51677 1-355): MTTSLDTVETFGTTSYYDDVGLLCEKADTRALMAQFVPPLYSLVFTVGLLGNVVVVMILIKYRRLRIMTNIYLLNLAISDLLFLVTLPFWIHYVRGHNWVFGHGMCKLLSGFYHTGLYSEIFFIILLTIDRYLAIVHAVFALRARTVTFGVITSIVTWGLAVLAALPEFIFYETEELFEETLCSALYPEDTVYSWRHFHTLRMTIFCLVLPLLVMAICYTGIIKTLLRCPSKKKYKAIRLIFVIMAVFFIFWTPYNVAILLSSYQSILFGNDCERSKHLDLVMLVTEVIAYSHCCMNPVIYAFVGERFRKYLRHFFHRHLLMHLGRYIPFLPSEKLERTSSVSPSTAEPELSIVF
Test: binding of [125I]-human eotaxin to human CCR3 (SPA, membranes of RBL-2H3 cells expressing CCR3)
Details: 4 hours at room temperature, read-out: IC50 value (inhibition of eotaxin binding to CCR3)
Procedure: In this assay the effect of the compounds of the present invention on the binding of human eotaxin to human CCR-3 is determined. Recombinant cells expressing human CCR3 are captured by wheatgerm agglutinin (WGA) polyvinyltoluidene (PVT) SPA beads (available from Amersham), through a specific interaction between the WGA and carbohydrate residues of glycoproteins on the surface of the cells. [^125I]-human eotaxin (available from Amersham) binds specifically to CCR3 receptors bringing the [^125I]-human eotaxin in close proximity to the SPA beads. Emitted […] from the [^125I]-human eotaxin excite, by its proximity, the fluorophore in the beads and produce light.
Preparation of Assay Buffer: 5.96 g HEPES and 7.0 g sodium chloride are dissolved in distilled H2O and 1M aqueous CaCl2 (1 ml) and 1M aqueous MgCl2 (5 ml) are added. The pH is adjusted to 7.6 with NaOH and the solution made to a final volume of 1 L using distilled H2O. 5 g of bovine serum albumin and 0.1 g NaN3 are dissolved in the solution and the resulting buffer stored at 4° C. […]
The assay is performed in a final volume of 250 μl per well of an Optiplate™ microplate (ex Canberra Packard). […] The resulting scintillations are counted using a Canberra Packard TopCount™ scintillation counter, each well being counted for 1 minute. […]

IC50 [nM] | SMILES
21 | COc1ccc(OC)c(NC(=O)C[n+]2cc(-c3ccc(Cl)c(Cl)c3)n3c2CCC3)c1 [Example 322]
23 | O=C(C[n+]1cc(-c2ccc(Cl)c(Cl)c2)n2c1CCC2)Nc1ccc2c(c1)OCCO2 [Example 341]
